Legend:
Type in all cases: in vivo
transplanted rice plant = test: Test Example 1: effect on crop, application before weed generation in submerged conditions (symbol a); settings: application herbicide amount 320 g/ha
Summary of the method: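 Rice at 2.5 leaf stage transplanted into submerged soil (4 cm depth) sown with three weed species; herbicide applied before weed emergence.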

Leptochloa chinensis = test: Test Example 3: herbicidal effect by foliage application, Wagner pot (symbol D); settings: application herbicide amount 320 g/ha
Summary of the method: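 Plants sown in submerged alluvial soil (water depth 0.1–0.5 cm) in a 25–30 °C greenhouse and grown 14 days. An emulsion of the compound diluted in water to a set herbicide amount was sprayed uniformly on foliage. Effect on each plant scored 3 weeks after application.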

[1] = test system: directly sowed rice plant; test: Test Example 3: effect on crop by foliage application, Wagner pot (symbol b); settings: application herbicide amount 320 g/ha
Summary of the method: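 Greenhouse culture at 25–30 °C of seeded rice, Cyperus difformis, Leptochloa chinensis and Echinochloa crus-galli var. crus-galli, in alluvial soil held under 0.1–0.5 cm of water in a Wagner pot.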

Digitaria ciliaris = test: Test Example 4: herbicidal effect by soil treatment (symbol F); settings: 320 g/ha
Summary of the method: (§1)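 Seeds were sown in sterilized diluvial soil, covered with about 1.5 cm of soil, and the soil surface was sprayed with a water-diluted emulsion of the compound at a predetermined rate. Plants grew in a greenhouse at 25° C. to 30° C.; effects were scored visually 3 weeks after application.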

Abutilon theophrasti = test: Test Example 4: herbicidal effect by soil treatment (symbol M); settings: 320 g/ha
Summary of the method: as §1

Amaranthus retroflexus = test: Test Example 4: herbicidal effect by soil treatment (symbol N); settings: 320 g/ha
Summary of the method: as §1

rapeseed = test: Test Example 4: effect on crop by soil treatment (symbol g); settings: 320 g/ha
Summary of the method: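 Diluvial soil (sterilized) in boxes; seeds placed spot-wise alongside weed species; ~1.5 cm covering soil. Greenhouse, 25–30° C.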

Apera spica-venti = test: Test Example 5: herbicidal effect by foliage application, plastic box (symbol L); settings: 320 g/ha, 3 weeks after application
Summary of the method: (§2)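 Herbicide, formulated as an emulsion and diluted in water, is sprayed onto the aerial parts of 14-day seedlings. These were grown at 25° C. to 30° C. in sterilized diluvial soil; effects are graded after 3 weeks.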

Galium spurium = test: Test Example 5: herbicidal effect by foliage application, plastic box (symbol Q); settings: 320 g/ha, 3 weeks after application
Summary of the method: as §2

corn = test: Test Example 5: effect on crop by foliage application, plastic box (symbol c); settings: 320 g/ha, 3 weeks after application
Summary of the method: (§3)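 Crop and weed seeds sown in spots in sterilized diluvial soil in plastic boxes and covered with about 1.5 cm soil. Plants raised in a greenhouse at 25° C. to 30° C. for foliar application.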

wheat = test: Test Example 5: effect on crop by foliage application, plastic box (symbol e); settings: 320 g/ha, 3 weeks after application
Summary of the method: as §3

beet = test: Test Example 5: effect on crop by foliage application, plastic box (symbol f); settings: 320 g/ha, 3 weeks after application
Summary of the method: as §3

Monochoria vaginalis = test: Test Example 1: herbicidal activity, application before weed generation in submerged conditions (symbol C); settings: application herbicide amount 320 g/ha
Summary of the method: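 Weed control was rated three weeks after treatment on a 0–5 scale, from 5% or lower up to 90% or more. Pre-emergence water-surface application of diluted emulsion at a predetermined rate was made on the day of sowing, in flooded (4 cm water) pots containing rice seedlings, kept at 25–30 °C under glass.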

Structure (SMILES)	Effect grade on crop, a: transplanted rice plant (transplanted rice plant)	herbicidal effect on D (Leptochloa chinensis), grade 0-5 (Leptochloa chinensis)	effect on crop b (directly sowed rice plant), grade 0-5 [1]	F: Digitaria ciliaris, herbicidal effect grade (Digitaria ciliaris)	M: Abutilon theophrasti, herbicidal effect grade (Abutilon theophrasti)	N: Amaranthus retroflexus, herbicidal effect grade (Amaranthus retroflexus)	g: rapeseed, effect grade on crop (rapeseed)	L: Apera spica-venti, herbicidal effect (criteria 0-5) (Apera spica-venti)	Q: Galium spurium, herbicidal effect (criteria 0-5) (Galium spurium)	c: corn, effect on crop (criteria 0-5) (corn)	e: wheat, effect on crop (criteria 0-5) (wheat)	f: beet, effect on crop (criteria 0-5) (beet)	Herbicidal effect grade, C: Monochoria vaginalis (Monochoria vaginalis)
CC(CC1CC(O)=C(c2c(C)cc(C)cc2C)C1=O)=NOCC#N (centres unmarked) [1-102]	5 (Herbicidal ratio of 90% or more (almost completely withered))	5 (Herbicidal ratio of 90% or more (almost completely withered))	5 (Herbicidal ratio of 90% or more (almost completely withered))	4 (Herbicidal ratio of 70% or higher and lower than 90%)	0 (Herbicidal ratio of 5% or lower (almost no effect))	0 (Herbicidal ratio of 5% or lower (almost no effect))	0 (Herbicidal ratio of 5% or lower (almost no effect))	5 (Herbicidal ratio of 90% or more (almost completely withered))	0 (Herbicidal ratio of 5% or lower (almost no effect))	5 (Herbicidal ratio of 90% or more (almost completely withered))	4 (Herbicidal ratio of 70% or higher and lower than 90%)	0 (Herbicidal ratio of 5% or lower (almost no effect))	
CC(CC1CC(O)=C(c2c(C)cc(C)cc2C)C1=O)=NOCc1ccccc1Cl (centres unmarked) [1-113]	3 (Herbicidal ratio of 40% or higher and lower than 70%)			1 (Herbicidal ratio of 5% or higher and lower than 20%)	0 (Herbicidal ratio of 5% or lower (almost no effect))	0 (Herbicidal ratio of 5% or lower (almost no effect))	0 (Herbicidal ratio of 5% or lower (almost no effect))	5 (Herbicidal ratio of 90% or more (almost completely withered))	0 (Herbicidal ratio of 5% or lower (almost no effect))	0 (Herbicidal ratio of 5% or lower (almost no effect))	3 (Herbicidal ratio of 40% or higher and lower than 70%)	0 (Herbicidal ratio of 5% or lower (almost no effect))	4 (Herbicidal ratio of 70% or higher and lower than 90%)
CC(CC1CC(O)=C(c2c(C)cc(C)cc2C)C1=O)=NOC1CCCC1 (centres unmarked) [1-106]	5 (Herbicidal ratio of 90% or more (almost completely withered))	5 (Herbicidal ratio of 90% or more (almost completely withered))	5 (Herbicidal ratio of 90% or more (almost completely withered))	5 (Herbicidal ratio of 90% or more (almost completely withered))	0 (Herbicidal ratio of 5% or lower (almost no effect))	0 (Herbicidal ratio of 5% or lower (almost no effect))	3 (Herbicidal ratio of 40% or higher and lower than 70%)	5 (Herbicidal ratio of 90% or more (almost completely withered))	0 (Herbicidal ratio of 5% or lower (almost no effect))	5 (Herbicidal ratio of 90% or more (almost completely withered))	4 (Herbicidal ratio of 70% or higher and lower than 90%)	0 (Herbicidal ratio of 5% or lower (almost no effect))	
CC(CC1CC(O)=C(c2c(C)cc(C)cc2C)C1=O)=NOCc1ccc(F)cc1 (centres unmarked) [1-136]	5 (Herbicidal ratio of 90% or more (almost completely withered))	2 (Herbicidal ratio of 20% or higher and lower than 40%)	5 (Herbicidal ratio of 90% or more (almost completely withered))	5 (Herbicidal ratio of 90% or more (almost completely withered))		0 (Herbicidal ratio of 5% or lower (almost no effect))	3 (Herbicidal ratio of 40% or higher and lower than 70%)	5 (Herbicidal ratio of 90% or more (almost completely withered))	4 (Herbicidal ratio of 70% or higher and lower than 90%)	3 (Herbicidal ratio of 40% or higher and lower than 70%)	3 (Herbicidal ratio of 40% or higher and lower than 70%)	0 (Herbicidal ratio of 5% or lower (almost no effect))	5 (Herbicidal ratio of 90% or more (almost completely withered))
CC(CC1CC(O)=C(c2c(C)cc(C)cc2C)C1=O)=NOCc1ccc(Cl)cc1 (centres unmarked) [1-137]	5 (Herbicidal ratio of 90% or more (almost completely withered))	5 (Herbicidal ratio of 90% or more (almost completely withered))	5 (Herbicidal ratio of 90% or more (almost completely withered))	5 (Herbicidal ratio of 90% or more (almost completely withered))	0 (Herbicidal ratio of 5% or lower (almost no effect))		0 (Herbicidal ratio of 5% or lower (almost no effect))	5 (Herbicidal ratio of 90% or more (almost completely withered))	0 (Herbicidal ratio of 5% or lower (almost no effect))	3 (Herbicidal ratio of 40% or higher and lower than 70%)	3 (Herbicidal ratio of 40% or higher and lower than 70%)	0 (Herbicidal ratio of 5% or lower (almost no effect))	5 (Herbicidal ratio of 90% or more (almost completely withered))
CC(CC1CC(O)=C(c2c(C)cc(C)cc2C)C1=O)=NOCc1ccc(C(F)(F)F)cc1 (centres unmarked) [1-138]	5 (Herbicidal ratio of 90% or more (almost completely withered))	2 (Herbicidal ratio of 20% or higher and lower than 40%)	5 (Herbicidal ratio of 90% or more (almost completely withered))		0 (Herbicidal ratio of 5% or lower (almost no effect))	0 (Herbicidal ratio of 5% or lower (almost no effect))	0 (Herbicidal ratio of 5% or lower (almost no effect))	5 (Herbicidal ratio of 90% or more (almost completely withered))	3 (Herbicidal ratio of 40% or higher and lower than 70%)	2 (Herbicidal ratio of 20% or higher and lower than 40%)	3 (Herbicidal ratio of 40% or higher and lower than 70%)	0 (Herbicidal ratio of 5% or lower (almost no effect))	5 (Herbicidal ratio of 90% or more (almost completely withered))

Source: US11000033B2, “Ketone or oxime compound, and herbicide” (NISSAN CHEMICAL CORPORATION, priority 2014, dated 2021)
